pIC50: −log10 of the molar value.
Experiments:
CDK2/Cyclin E2 = target: T1, CDK2/Cyclin E2 (Homo sapiens, UniProt P24941); assay: CDK2/CyclinE2 Enzymatic Activity Assay (TR-FRET); type: biochemical; conditions: ATP 1 mM final, read-out: CDK2_E1 IC50
T1 construct: Recombinant protein complex CDK2/Cyclin E2, expressed from insect cell, was purchased from ProQinase
Outline: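 Recombinant insect-cell CDK2/Cyclin E2 (1 nM) phosphorylated ULight-4E-BP1 (50 nM) with 1 mM ATP in HEPES pH 7.4 buffer, after 20 min compound preincubation; MgCl2 (10 mM) started the 45 min reaction at 37° C. Europium anti-phospho-4E-BP1 TR-FRET read; 9-dose IC50 by 4-parameter fit.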

CDK4/Cyclin D1 = target: T2, CDK4/Cyclin D1 (Homo sapiens, UniProt P11802); assay: CDK4/CyclinD1 Enzymatic Activity Assay (TR-FRET); type: biochemical; conditions: ATP 2 mM final, read-out: CDK4_D1 IC50
T2 construct: purchased ProQinase; host or cells: insect cell
T2 sequence (P11802 whole entry): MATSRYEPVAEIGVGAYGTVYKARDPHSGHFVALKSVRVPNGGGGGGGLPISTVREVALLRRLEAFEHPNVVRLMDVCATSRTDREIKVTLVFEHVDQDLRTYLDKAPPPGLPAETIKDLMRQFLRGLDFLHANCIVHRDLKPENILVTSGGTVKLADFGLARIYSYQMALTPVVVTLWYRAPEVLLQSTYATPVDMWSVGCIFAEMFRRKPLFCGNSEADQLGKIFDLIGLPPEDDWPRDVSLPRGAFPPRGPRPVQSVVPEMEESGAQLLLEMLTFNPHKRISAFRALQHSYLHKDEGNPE
T2 sequence (P24385 whole entry partner): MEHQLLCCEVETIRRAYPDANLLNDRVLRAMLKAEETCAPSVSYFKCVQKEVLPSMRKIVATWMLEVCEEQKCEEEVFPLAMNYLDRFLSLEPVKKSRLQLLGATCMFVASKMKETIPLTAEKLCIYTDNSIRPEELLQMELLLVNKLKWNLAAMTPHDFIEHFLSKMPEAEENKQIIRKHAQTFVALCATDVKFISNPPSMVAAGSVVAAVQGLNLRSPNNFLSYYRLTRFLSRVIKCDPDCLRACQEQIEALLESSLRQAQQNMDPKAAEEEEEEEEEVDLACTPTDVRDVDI
Outline: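 Insect-cell-expressed CDK4/Cyclin D1 (1 nM) with ULight-4E-BP1 (100 nM) and 2 mM ATP in HEPES pH 7.4; 9-dose 3-fold compound series preincubated 20 min, reaction started with 10 mM MgCl2, 45 min at 37° C. Europium anti-P-4E-BP1 TR-FRET read; IC50 from 4-parameter Hill fit.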

OVCAR3 p-RB = assay: pRB ICW Assay in OVCAR3 Cells; type: cell-based; conditions: Homo sapiens, OVCAR-3, incubated with compound for 2 hours
Outline: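 OVCAR3 cells were treated 2 h at 37° C. with a 9-point half-log compound series, duplicate wells, with 10 μM reference compound as maximum inhibition. Fixed, permeabilized cells were stained with anti-phospho-RB plus DRAQ5 and imaged at 700/800 nm (In-Cell Western).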

| pIC50 (CDK2/Cyclin E2) | pIC50 (CDK4/Cyclin D1) | pIC50 (OVCAR3 p-RB) | SMILES |
| --- | --- | --- | --- |
| ≥ 7.00 | ≥ 7.00 | ≥ 7.00 | C[C@@H]1CN(S(=O)(=O)c2cnn(C)c2)CC[C@@H]1Nc1ncc(C(F)(F)F)c(-c2ncc(C(C)(C)O)s2)n1 [Example 100, 2-(2-(2-(((3R,4S)-3-methyl-1-((1-methyl-1H-pyrazol-4-yl)sulfonyl)piperidin-4-yl)amino)-5-(trifluoromethyl)pyrimidin-4-yl)thiazol-5-yl)propan-2-ol] |
| ≥ 7.00 | ≥ 7.00 | ≥ 7.00 | CC(O)(c1cnc(-c2nc(NC3CCN(S(C)(=O)=O)CC3)ncc2C(F)(F)F)s1)C(F)(F)F (stereo not drawn) [Example 103, 1,1,1-trifluoro-2-(2-(2-((1-(methylsulfonyl)piperidin-4-yl)amino)-5-(trifluoromethyl)pyrimidin-4-yl)thiazol-5-yl)propan-2-ol] |
| ≥ 7.00 | ≥ 7.00 | ≥ 7.00 | C[C@@H]1CN(S(=O)(=O)c2cn(C)cn2)CC[C@@H]1Nc1ncc(C(F)(F)F)c(-c2ncc(C(C)(O)C(F)F)s2)n1 (stereo partly drawn) [Example 104, 1,1-difluoro-2-(2-(2-(((3R,4S)-3-methyl-1-((1-methyl-1H-imidazol-4-yl)sulfonyl)piperidin-4-yl)amino)-5-(trifluoromethyl)pyrimidin-4-yl)thiazol-5-yl)propan-2-ol] |
| ≥ 7.00 | ≥ 7.00 | ≥ 7.00 | CC(C)(O)Cc1cnc(-c2nc(NC3CCN(S(C)(=O)=O)CC3)ncc2C(F)(F)F)s1 [Example 107, 2-Methyl-1-(2-(2-((1-(methylsulfonyl)piperidin-4-yl)amino)-5-(trifluoromethyl)pyrimidin-4-yl)thiazol-5-yl)propan-2-ol] |
| ≥ 7.00 | ≥ 7.00 | 6.30 to 7.00 | CC(C)(O)Cc1cnc(-c2nc(N[C@H]3CCN(S(C)(=O)=O)C[C@H]3F)ncc2C(F)(F)F)s1 [Example 108, 1-(2-(2-(((3R,4S)-3-fluoro-1-(methylsulfonyl)piperidin-4-yl)amino)-5-(trifluoromethyl)pyrimidin-4-yl)thiazol-5-yl)-2-methylpropan-2-ol] |
| ≥ 7.00 | ≥ 7.00 | ≥ 7.00 | Cn1cc(S(=O)(=O)N2CC[C@H](Nc3ncc(C(F)(F)F)c(-c4ncc(CC(C)(C)O)s4)n3)[C@H](F)C2)cn1 [Example 109, 1-(2-(2-(((3R,4S)-3-fluoro-1-((1-methyl-1H-pyrazol-4-yl)sulfonyl)piperidin-4-yl)amino)-5-(trifluoromethyl)pyrimidin-4-yl)thiazol-5-yl)-2-methylpropan-2-ol] |
| ≥ 7.00 | ≥ 7.00 | 6.30 to 7.00 | CC(O)c1cnc(-c2nc(N[C@H]3CCN(S(=O)(=O)c4cnn(C)c4)C[C@H]3F)ncc2C(F)(F)F)s1 (stereo partly drawn) [Example 114, 1-(2-(2-(((3R,4S)-3-fluoro-1-((1-methyl-1H-pyrazol-4-yl)sulfonyl)piperidin-4-yl)amino)-5-(trifluoromethyl)pyrimidin-4-yl)thiazol-5-yl)ethan-1-ol] |
| ≥ 7.00 | 6.30 to 7.00 | < 6.30 | C[C@@H]1CN(S(C)(=O)=O)CC[C@@H]1Nc1ncc(C(F)(F)F)c(-c2ncc(CC(C)(C)O)s2)n1 [Example 131, 2-methyl-1-(2-(2-(((3R,4S)-3-methyl-1-(methylsulfonyl)piperidin-4-yl)amino)-5-(trifluoromethyl)pyrimidin-4-yl)thiazol-5-yl)propan-2-ol] |
| ≥ 7.00 | 6.30 to 7.00 | < 6.30 | C[C@@H]1CN(S(C)(=O)=O)CC[C@@H]1Nc1ncc(C(F)(F)F)c(-c2ncc(C(C)(C)O)s2)n1 [Example 132, 2-(2-(2-(((3R,4S)-3-methyl-1-(methylsulfonyl)piperidin-4-yl)amino)-5-(trifluoromethyl)pyrimidin-4-yl)thiazol-5-yl)propan-2-ol] |
| ≥ 7.00 | 6.30 to 7.00 | 6.30 to 7.00 | C[C@@H]1CN(S(C)(=O)=O)CC[C@@H]1Nc1ncc(C(F)(F)F)c(-c2ncc(C(C)(O)C(F)F)s2)n1 (stereo partly drawn) [Example 142, 1,1-difluoro-2-(2-(2-(((3R,4S)-3-methyl-1-(methylsulfonyl)piperidin-4-yl)amino)-5-(trifluoromethyl)pyrimidin-4-yl)thiazol-5-yl)propan-2-ol] |
